Experiment: xn = mol fraction of the nth substance listed

CCCCC + CCCCCCCCC
298.15 K, 101.33 kPa
Settings	viscosity [mPa·s]
x1 = 0.0925	0.611
x1 = 0.1995	0.5548
x1 = 0.308	0.5016
x1 = 0.403	0.4556
x1 = 0.4861	0.4179
x1 = 0.6016	0.3691
x1 = 0.702	0.3268
x1 = 0.8033	0.2892
x1 = 0.904	0.2538

OC1CCCCC1 + O=C1CCCCC1
298.15 K, 101.3 kPa
Settings	viscosity [mPa·s]
x2 = 0.2	13.85
x2 = 0.4	6.29
x2 = 0.51	4.54
x2 = 0.6	3.54
x2 = 0.8	2.38

C1CCCCCCC1 + CCCCCCC
Settings	viscosity [mPa·s]
308.15 K, 101 kPa, x2 = 0.1897	1.125

CCCCCCCO + Cc1ccccc1
viscosity [mPa·s], 101 kPa
Settings	298.15 K	308.15 K
x2 = 0.0525	4.969	3.846
x2 = 0.1014	4.357	3.429
x2 = 0.1518	3.776	3.068
x2 = 0.1859	3.412	2.862
x2 = 0.2489	2.873	2.456
x2 = 0.3011	2.473	2.202
x2 = 0.3504	2.153	1.942
x2 = 0.4006	1.843	1.719
x2 = 0.4494	1.63	1.542
x2 = 0.5003	1.435	1.357
x2 = 0.5486	1.245	1.223
x2 = 0.5903	1.12	1.094
x2 = 0.6493	0.965	0.967
x2 = 0.7011	0.893	0.874
x2 = 0.752	0.768	0.766
x2 = 0.8041	0.676	0.664
x2 = 0.8495	0.645	0.624
x2 = 0.9009	0.6	0.575
x2 = 0.9487	0.572	0.527

CCCCC + CCCCCCCC
Settings	viscosity [mPa·s]
297.95 K, 101 kPa, x1 = 0.1048	0.4645
297.95 K, 101 kPa, x1 = 0.1992	0.4431
297.95 K, 101 kPa, x1 = 0.3044	0.4126
297.95 K, 101 kPa, x1 = 0.4015	0.3847
297.95 K, 101 kPa, x1 = 0.5066	0.3498
297.95 K, 101 kPa, x1 = 0.5998	0.3216
297.95 K, 101 kPa, x1 = 0.7095	0.2978
297.95 K, 101 kPa, x1 = 0.8097	0.2723
297.95 K, 101 kPa, x1 = 0.8946	0.2443
298.15 K, 101.33 kPa, x1 = 0.1059	0.4719
298.15 K, 101.33 kPa, x1 = 0.1973	0.4439
298.15 K, 101.33 kPa, x1 = 0.3019	0.4091
298.15 K, 101.33 kPa, x1 = 0.404	0.3806
298.15 K, 101.33 kPa, x1 = 0.5019	0.3545
298.15 K, 101.33 kPa, x1 = 0.6046	0.3228
298.15 K, 101.33 kPa, x1 = 0.7015	0.2963
298.15 K, 101.33 kPa, x1 = 0.8026	0.2702
298.15 K, 101.33 kPa, x1 = 0.9035	0.2454
313.05 K, 101 kPa, x1 = 0.1048	0.3939
313.05 K, 101 kPa, x1 = 0.1992	0.3894
313.05 K, 101 kPa, x1 = 0.3044	0.3676
313.05 K, 101 kPa, x1 = 0.4015	0.3504
313.05 K, 101 kPa, x1 = 0.5066	0.3205
313.05 K, 101 kPa, x1 = 0.5998	0.2816

CCOC(=O)C(C)O (stereo not drawn) + CCC(C)=O
101 kPa
Settings	viscosity [mPa·s]
298.15 K, x1 = 0.6999	1.375
308.15 K, x1 = 0.8	1.345
308.15 K, x1 = 0.9001	1.595
318.15 K, x1 = 0.1999	0.4415

CCCCC + C1CCOC1
viscosity [mPa·s], 101 kPa
Settings	x2 = 0.1001	x2 = 0.2001	x2 = 0.3001	x2 = 0.4001	x2 = 0.5001	x2 = 0.6001	x2 = 0.7001	x2 = 0.8001	x2 = 0.9001
293.15 K	0.2331	0.2498	0.2688	0.2894	0.3116	0.3371	0.3686	0.4034	0.4485
298.15 K	0.2241	0.2405	0.258	0.2768	0.2977	0.3204	0.347	0.38	0.4212

CC(=O)CC(C)(C)O + CC(=O)CC(C)C
298.15 K, 101 kPa
Settings	viscosity [mPa·s]
x2 = 0.1301	2.157
x2 = 0.2473	1.707
x2 = 0.3676	1.351
x2 = 0.4821	1.108
x2 = 0.5836	0.943
x2 = 0.6974	0.796
x2 = 0.8046	0.687
x2 = 0.9001	0.608

CCCCC(=O)OCC + CCCCCO
viscosity [mPa·s], 101.33 kPa
Settings	x1 = 0.1037	x1 = 0.1921	x1 = 0.3001	x1 = 0.4089	x1 = 0.5015	x1 = 0.6062	x1 = 0.7081	x1 = 0.8013	x1 = 0.9029
293.15 K	3.302	2.761	2.241	1.841	1.575	1.34	1.163	1.036	0.927
303.15 K	2.379	2.008	1.651	1.377	1.195	1.033	0.912	0.825	0.749
313.15 K	1.887	1.61	1.344	1.139	1.004	0.884	0.793	0.728	0.672

CCCCC + CCCO
298.15 K, 101.33 kPa
Settings	viscosity [mPa·s]
x2 = 0.0291	0.242
x2 = 0.0777	0.256
x2 = 0.1952	0.29
x2 = 0.3332	0.357
x2 = 0.403	0.41
x2 = 0.4771	0.484
x2 = 0.6076	0.666
x2 = 0.7373	0.949
x2 = 0.8545	1.333
x2 = 0.9586	1.778

NCCCC[C@H](N)C(=O)O + O
viscosity [mPa·s], 101 kPa
Settings	293.15 K	298.15 K	303.15 K	308.15 K	313.15 K
x1 = 0.006	1.261	1.129	1.016	0.9447	0.8984
x1 = 0.014	1.324	1.194	1.079	1.013	0.9598

CC(=O)O.NCCO + O
viscosity [mPa·s], 101 kPa
Settings	x1 = 0.0075	x1 = 0.0163	x2 = 0.8718	x2 = 0.9099	x2 = 0.9403	x2 = 0.9641	x2 = 0.9743
293.15 K	1.308	1.512	7.458	4.47	2.88	2.01	1.71
298.15 K	1.17	1.344	6.312	3.84	2.513	1.788	1.512
303.15 K	1.05	1.218	5.448	3.354	2.232	1.584	1.35

C1CCCCCCC1 + CCCCCCCCCC
viscosity [mPa·s], 101 kPa
Settings	x1 = 0.0657	x1 = 0.1971	x1 = 0.282	x1 = 0.386	x1 = 0.508	x1 = 0.5849	x1 = 0.7031	x1 = 0.7984	x1 = 0.9053
308.15 K	0.7647	0.829	0.881	0.9331	1.026	1.093	1.213	1.345	1.55
313.15 K	0.7178	0.7776	0.819	0.8631	0.9523	1.006	1.12	1.24	1.406

CCCCCCCCCCCCCC[P+](CCCCCC)(CCCCCC)CCCCCC.c1ccc2[n-]nnc2c1 + O
Settings	viscosity [mPa·s]
298.15 K, 100 kPa, x2 = 0.728	181

CCCCCCCO + CCOC(C)=O
viscosity [mPa·s], 101.33 kPa
Settings	x2 = 0.1277	x2 = 0.2478	x2 = 0.3609	x2 = 0.4677	x2 = 0.5686	x2 = 0.6673	x2 = 0.7546	x2 = 0.8406
298.15 K	3.587	2.423	1.721	1.284	1	0.823	0.663	0.569
303.15 K	3.13	2.144	1.543	1.184	0.914	0.752	0.627	0.529
308.15 K	2.724	1.904	1.41	1.065	0.839	0.696	0.576	0.496

Source: the CheMixHub viscosity set
